Tests used:
[1] = parameters: method as in PMID 31969707; conditions: adult RMs (n = 7), matched doses, plasma; cited from earlier work
[2] = tested on: NF-κB associated genes in CD4+ T cells; experiment: RNA-Seq of peripheral CD4+ T cells pre- and post-AZD5582; format: in vivo, rhesus macaque
Protocol: Treatment with AZD5582 in SIV-infected, ART-suppressed adult RMs upregulates key genes associated with signaling through the ncNF-kB pathway, rather than the canonical NF-κB (cNF-kB) pathway in CD4^+ T cells ([17]). Here, we performed RNA-Seq in total CD4^+ T cells isolated from the peripheral blood of AZD5582-treated infant macaques at baseline (pre-dose 1) and the end of the treatment period (post-dose 10).
RNA-sequencing (RNA-seq) analysis was conducted at the Yerkes Nonhuman Primate Genomics Core Laboratory (http://www.yerkes.emory.edu/nhp_genomics_core/). RNA was purified from 50,000 peripheral blood-derived CD4^+ T cells purified by negative selection and lysed in 350 μL of RLT buffer at −80°C, using Qiagen Micro RNEasy columns, and RNA quality was assessed using an Agilent Bioanalyzer. Following this, 2 ng of total RNA was used as input for mRNA amplification using 5′ template switch PCR with the Clontech SMART-seq v4 Ultra Low Input RNA kit according to the manufacturer’s instructions. Amplified mRNA was fragmented and appended with dual-index bar codes using Illumina NexteraXT DNA library preparation kits. Libraries were validated by capillary electrophoresis on an Agilent 4200 TapeStation, pooled and sequenced on an Illumina HiSeq 3000 using 100-bp single reads at an average depth of 25 million reads. Alignment was performed using STAR version 2.7.3a ([36]) and transcripts were annotated using a composite reference of rhesus macaque (Mmul10 Ensembl release 100).
Statistical analyses were performed using GraphPad Prism Software (v.7 or v.8). P ≤ 0.05 was considered statistically significant. To compare differences in pre-ART viral loads between experimental groups in Fig. 2D and SIV DNA levels in Fig. 3C a two-sided Mann-Whitney test was used. To test the statistical significance observed in Ki67 expression on memory CD4^+ and CD8^+ T cells in Fig. 3B, BIRC3, NFKB2 gene expression in Fig. 6A and B, and SIV RNA expression in Fig. 6C and D. A Wilcoxon matched-pairs signed-rank test was used. For RNA-seq analysis in Fig. 5, RNA-seq data were mapped to the NCBI Mmul10 assembly of the Indian rhesus macaque genome, and alignment was performed with STAR (v.2.7.3a) using Ensemble release 100 annotations as a transcript annotation and splice junction reference. Transcript abundance estimates were calculated internal to the STAR aligner using the algorithm of htseq-count ([37]). DESeq2 ([38]) was used for normalization and differential expression analysis. Gene set enrichment analysis ([39]) (GSEA), performed with the GSEA desktop module (available at https://www.broadinstitute.org/gsea/) and the Molecular Signatures Database (MSigDB), was used to determine pathway/gene set enrichment. Heat maps, volcano plots, and principal-component analysis plots were generated with the R (v 3.6.0) package ggplot2.

memory CD8+ T cells = experiment: Ki67 expression by whole blood flow cytometry, memory CD8+ T cells; format: in vivo, rhesus macaque; conditions: for Ki67 expression in memory CD8+ T cells: AZD5582 treated infant RMs
Protocol: The ncNF-κB pathway plays an important role in regulating T cell differentiation without causing broad systemic inflammation ([22]). We have previously observed a stimulatory effect on peripheral T cells following AZD5582 treatment specifically measurable through increased intracellular Ki67 expression ([17]). To further assess the effect of AZD5582 on infant RMs, flow cytometry was performed longitudinally on whole blood on the day of doses 1, 3, 6, and 9 and both 48 to 72h and 7 days after each of these doses. These time points were selected to allow longitudinal evaluation while remaining within blood volume constraints.
Multicolor flow cytometric analysis was performed on whole blood (WB) or cell suspensions using predetermined optimal concentrations of the following fluorescently conjugated monoclonal antibodies (MAbs). For WB T cell analysis the following MAbs were used: CD3-allophycocyanin (APC)-Cy7 (clone SP34-2), CD95-phycoerythrin (PE)-Cy5 (clone DX2), Ki67-AF700 (clone B56), HLA-DR-peridinin chlorophyll protein (PerCP)-Cy5.5 (clone G46-6), CCR7-fluorescein isothiocyanate (FITC) (clone 150503), CCR5-APC (clone 3A9), CD62L (clone SK11), and CD45-RA-PE-Cy7 (clone L45) from BD Biosciences; CD8-BV711 (clone RPA-T8), CD4-BV650 (clone OKT4), and PD-1-BV421 (clone EH12.2H7) from BioLegend; and CD28-ECD (clone CD28-2) from Beckman-Coulter. Flow cytometric acquisition and analysis of samples were performed on at least 100,000 events on an AURORA flow cytometer driven by the SpectroFlo software package (Cytek). Analyses of the acquired data were performed using FlowJo version 10.0.4 software (TreeStar).

[3] = infant RMs, CD4+ T cells, post-dose 10 vs pre-dose 1

CN[C@@H](C)C(=O)N[C@H](C(=O)N1CCC[C@H]1C(=O)N[C@H]1c2ccccc2C[C@H]1OCC#CC#CCO[C@@H]1Cc2ccccc2[C@@H]1NC(=O)[C@@H]1CCCN1C(=O)[C@@H](NC(=O)[C@H](C)NC)C1CCCCC1)C1CCCCC1 [AZD5582]
AUC0-2h [1]: 512 ng·h/mL | Cmax [1]: 802 ng/mL | BIRC3 and BIRC5 expression in CD4+ T cells ([2]; AZD5582 treated infant and adult RMs): most significantly upregulated | Genes downregulated following AZD5582 treatment [2, 3]: 176 genes | Genes upregulated following AZD5582 treatment [2, 3]: 855 genes | Genes differentially expressed following AZD5582 treatment ([2]; infant RMs, CD4+ T cells, post-dose 10 vs pre-dose 1, FDR 5%, linear fold change 50%): 1,031 genes | Expression of RELB, NFKB2 and NFKBIA in CD4+ T cells ([2]; treated infant RMs): did not observe increased expression | Mean Ki67 expression in peripheral memory CD8+ T cells (memory CD8+ T cells; 3-days post-AZD5582 (doses 1, 3, 6, 9), P = 0.03): 26.5% | Ki67 expression in memory CD8+ T cells (memory CD8+ T cells; 7 days following dose 1): 46.7% | Ki67 expression in memory CD8+ T cells (memory CD8+ T cells; before the increase seen after dose 1): 5.1% | Mean Ki67 expression in peripheral memory CD8+ T cells (memory CD8+ T cells; baseline (immediately before doses 1, 3, 6, 9)): 18.2% | Average increase of Ki67 expression in memory CD8+ T cells after dose 1 (memory CD8+ T cells; relative to three baseline measurements, treated infant RMs): 23.3%

Reference: publication PMC9006931, “Altered Response Pattern following AZD5582 Treatment of SIV-Infected, ART-Suppressed Rhesus Macaque Infants” (Journal of Virology, 2022)
